From patent US9005670B2, “Use of histone acetyltransferase inhibitors as novel anti-cancer therapies” (The Johns Hopkins University, priority 2010, dated 2015)

Assays:
[1] = biological target: T1, p300 HAT (Homo sapiens, UniProt Q09472, DEL1529-1560/M1652G); test: coupled spectrophotometric p300 HAT assay; format: biochemical; details: for % inhibition in initial screen: compounds at 100 μM
T1 construct: A variant of the HAT domain of p300 (residues 1287 to 1652) was expressed as a fusion; a C-terminal peptide corresponding to residues 1653-1666 of p300; made in house; host or cells: E. coli BL21(RIL)-DE3; C-terminal peptide by solid phase synthesis
T1 sequence (Q09472 with tags, fused parts or gaps DEL1529-1560/M1652G limits assumed): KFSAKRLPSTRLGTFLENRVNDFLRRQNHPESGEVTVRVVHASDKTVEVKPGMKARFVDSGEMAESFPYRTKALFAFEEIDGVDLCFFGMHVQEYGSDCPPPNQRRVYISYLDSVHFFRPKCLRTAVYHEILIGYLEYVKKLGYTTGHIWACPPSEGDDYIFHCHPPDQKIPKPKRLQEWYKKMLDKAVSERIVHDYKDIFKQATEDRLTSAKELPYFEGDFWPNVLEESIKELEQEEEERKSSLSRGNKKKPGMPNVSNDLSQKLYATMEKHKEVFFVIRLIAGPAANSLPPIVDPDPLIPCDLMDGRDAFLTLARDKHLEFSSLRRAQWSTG
Protocol: After completing the computational docking screen, the top 194 inhibitors were tested in a convenient spectrophotometric assay as described in Kim et al., Anal. Biochem. 280, 308 (2000). In the coupled spectrophotometric assay, the acetyltransferase reaction product CoASH becomes a substrate for alpha-ketoglutarate dehydrogenase, which converts NAD to NADH, resulting in an increase of UV absorbance at 340 nm. Screening conditions for these p300 HAT assays included substrate concentrations of 200 μM histone H4-15 peptide and 50 μM acetyl-CoA, and potential small molecule inhibitors tested at 100 μM. […] To distinguish inhibitory effects related to blockade of coupling enzyme rather than p300, assays were repeated using increased (2-fold) alpha-ketoglutarate dehydrogenase. […] The remaining compounds were then assessed in a protein aggregation-related inhibition assay as described in Feng et al., Nat. Chem. Biol. 1, 146 (2005). […] In this radioactive p300 HAT assay, ^14C transfer from ^14C-acetyl-CoA into peptide substrate is directly measured using Tris-Tricine SDSPAGE and phosphorimage analysis.
The top 194 p300 HAT inhibitor candidates identified by VLS were screened using a coupled spectrophotometric assay. In this assay, CoASH produced by the p300 reaction is used by α-ketoglutarate dehydrogenase (α-KGDH) to produce NADH, which can be monitored spectrophotometrically at 340 nm. Reactions were performed at 30° C. in […] HEPES, pH 7.9, and contained 200 μM H4-15, 200 μM TPP, 5 mM MgCl 2, 1 mM DTT, 50 μg/mL BSA, 200 μM NAD, 2.4 mM α-ketoglutarate, 200 μM acetyl-CoA, 0.1 units α-KGDH, and 100 nM p300. DMSO was kept at a constant 3.3%, and candidate compounds were screened at 100 μM. Reaction mixtures were incubated at 30° C. for 10 min prior to initiation. Reactions were initiated with addition of H4-15 and followed over the linear portion of the progress curve, which provides the initial velocity via linear regression. Percent inhibition was determined by comparison with velocity without candidate added. […] To ensure that compounds were not inhibiting α-KGDH instead of p300, compounds were assayed with 0.2 units of α-KGDH, two times the amount used in the initial screen. To ensure that compounds were not inhibiting through nonspecific aggregation, compounds were assayed in the presence of 0.01% Triton X-100.

[2] = biological target: T1, p300 HAT; test: direct radioactive p300 HAT assay (14C-acetyl-CoA transfer to H4-15); format: biochemical; details: for weakening of p300 inhibitory potency compared with C646 (relative IC50): range of concentrations
Protocol: In this assay, production of ^14C-labeled Ac-H4-15 is monitored electrophoretically. Reactions were performed in 20 mM HEPES, pH 7.9, and contained 5 mM DTT, 80 μM EDTA, 40 μg/mL BSA, 100 μM H4-15, and 5 nM p300. […] Reactions were incubated at 30° C. for 10 minutes, initiated with addition of a 1:1 mixture of 12 C-acetyl-CoA and 14 C-acetyl-CoA to a final concentration of 20 μM, and allowed to run for 10 min at 30° C. Reactions are then quenched with addition of 14% SDS (w/v). Turnover was kept below 10%. All compounds were screened in duplicate. Samples were then loaded onto a 16% Tris-Tricine gel along with a BSA standard and run at 140 V for 90 minutes. Gels were washed and dried, and exposed in a PhosphorImager cassette for ˜2 days. Bands corresponding to Ac-H4-15 were then quantified using ImageQuant.
Reactions were performed in 20 mM HEPES, pH 7.9, and contained 5 mM DTT, 80 μM EDTA, 40 μg/mL BSA, 100 μM […], and 5 nM p300. Putative inhibitors were added over a range of concentrations, with DMSO concentration kept constant (<5%). Reactions were incubated at 30° C. for 10 minutes, then initiated with addition of a 1:1 mixture of ^12C-acetyl-CoA and ^14C-acetyl-CoA to 20 μM. After […] at 30° C., reactions were quenched with 14% SDS (w/v). All concentrations were screened in duplicate. Gels were run, washed, dried, and exposed to a PhosphorImager plate as described above, and production of Ac-H4-15 quantified. Data were fit to the following equation to obtain IC50s. […]

## CC(=O)c1ccc(NS(=O)(=O)c2cccc(C(=O)Nc3cccc(C(=O)O)c3)c2)cc1 [Compound 5917216]
[1]
  % inhibition in initial screen: 38.6%

## O=C(O)CCSc1nc2ccccc2c(=O)[nH]1 [Compound 5485989]
[1]
  % inhibition in initial screen: 0.0%

## O=C(CSC1CC(=O)N(c2ccc(C(=O)O)cc2)C1=O)Nc1ccc(F)cc1 (stereo not shown) [Compound 5310308]
[1]
  % inhibition in initial screen: 0.0%

## COC(=O)c1cccc(N2N=C(C)/C(=C/c3ccc(-c4cc(C)c(C)cc4[N+](=O)[O-])o3)C2=O)c1 [Compound 6i, Methyl 3-(4,5-dihydro-3-methyl-4-((5-(4,5-dimethyl-2-nitrophenyl)furan-2-yl)methylene)-5-oxopyrazol-1-yl)benzoate]
other
  melting point: 205 to 207 °C
[2]
  p300 HAT inhibition, result in words (analogs compared with C646): well tolerated

## Cc1nc(=O)c(-c2ccccc2)c(C)n1-c1ccccc1C(=O)O [Compound 7261568]
[1]
  % inhibition in initial screen: 0.0%

## O=C(O)CCC(=O)Nc1ccc(-c2nc3cc(Cl)ccc3o2)cc1 [Compound 6786461]
[1]; 0.2 units α-KGDH (two times)
  % inhibition with 2x coupling enz: 100.0%
[1]; aggregation control, 0.01% Triton X-100
  % inhibition with .01% Triton X-100: 58.2%
[1]
  % inhibition in initial screen: 66.6%
[2]; 25 uM
  % inhibition at 25 uM in radioactive assay: 0.0%

## O=C(O)c1cccc(NC(=O)c2cc(S(=O)(=O)Nc3cccc([N+](=O)[O-])c3)ccc2Cl)c1 [Compound 5915900]
[1]
  % inhibition in initial screen: 0.0%

## COc1cccc(CNC(=O)C(=O)Nc2ccc(C(C)C)cc2)c1 [Compound 7076620]
[1]
  % inhibition in initial screen: 0.0%

## CC1=NN(c2ccc(S(N)(=O)=O)cc2)C(=O)/C1=C\c1ccc(-c2cc(C)c(C)cc2[N+](=O)[O-])o1 [Compound 6g]
other
  melting point: 152 to 154 °C

## Cc1nc(SCc2ccccc2)[nH]c(=O)c1CC(=O)O [Compound 6658754]
[1]
  % inhibition in initial screen: 0.0%

## COc1cccc(NC(=O)C(=O)NCCc2ccc(OC)c(OC)c2)c1 [Compound 5574003]
[1]
  % inhibition in initial screen: 0.0%

## O=C(O)C1CCCN(S(=O)(=O)c2cccs2)C1 (stereo not shown) [Compound 7195131]
[1]
  % inhibition in initial screen: 0.0%

## COC(=O)c1ccc(N2N=C(C)C(=Cc3ccc(-c4cc(C)c(C)cc4[N+](=O)[O-])o3)C2=O)cc1 [Compound 6h, Methyl 4-(4,5-dihydro-3-methyl-4-((5-(4,5-dimethyl-2-nitrophenyl)furan-2-yl)methylene)-5-oxopyrazol-1-yl)benzoate]
other
  melting point: 214 to 216 °C
[2]
  weakening of p300 inhibitory potency compared with C646 (relative IC50): > 15 fold

## CC1=NN(c2cccc(C(=O)O)c2)C(=O)C1=Cc1ccc(-c2cc(C)c(C)cc2[N+](=O)[O-])o1 [Compound 6e, 3-(4,5-dihydro-3-methyl-4-((5-(4,5-dimethyl-2-nitrophenyl)furan-2-yl)methylene)-5-oxopyrazol-1-yl)benzoic acid]
other
  melting point: 260 to 262 °C
[2]
  p300 HAT inhibition, result in words (analogs compared with C646): well tolerated

## CC1=NN(c2ccc(C(=O)O)cc2)C(=O)/C1=C\c1ccc(-c2cc(C)c(C)cc2C#N)o1 [Compound 6o, 4-(4,5-dihydro-4-((5-(4,5-dimethyl-2-benzonitrile)furan-2-yl)methylene)-3-methyl-5-oxopyrazol-1-yl)-benzoic acid]
other
  melting point: 295 to 297 °C
[2]
  p300 HAT inhibition, result in words (analogs compared with C646): well tolerated

## CC1=NN(CCC(=O)O)C(=O)C1=Cc1ccc(-c2cc(C)c(C)cc2[N+](=O)[O-])o1 [Compound 6k, 3-(4,5-dihydro-3-methyl-4-((5-(4,5-dimethyl-2-nitrophenyl)furan-2-yl)methylene)-5-oxopyrazol-1-yl)propanoic acid]
other
  melting point: 189 to 190 °C
[2]
  p300 HAT inhibition, result in words (analogs compared with C646): cannot successfully replace the benzoate ring of C646 and still retain p300 inhibitory potency

## CC1=NN(c2ccc(C(=O)O)cc2)C(=O)/C1=C\c1ccc(-c2ccccn2)o1 [Compound 6p, 4-(4,5-dihydro-3-methyl-5-oxy-4-((5-(pyridin-2-yl)furan-2-yl)methylene)pyrazol-1-yl)benzoic acid]
other
  melting point: 294 to 296 °C
[2]
  p300 HAT inhibition, result in words (analogs compared with C646): eliminated p300 inhibitory action

## COc1ccc(CCNC(=O)c2ccccc2[N+](=O)[O-])cc1OC [Compound 5693758]
[1]
  % inhibition in initial screen: 0.0%

## Cc1cc(-c2ccc(C(=O)c3c(C)nn(-c4ccc(C(=O)O)cc4)c3O)o2)c([N+](=O)[O-])cc1C [Compound 6q]
[2]
  weakening of p300 inhibitory potency compared with C646 (relative IC50): 6 fold

## O=C(O)c1ccc(Br)c(S(=O)(=O)Nc2ccc(NC(=O)c3ccccc3)cc2)c1 [Compound 5913665]
[1]
  % inhibition in initial screen: 0.0%

## C=CCn1c(SCC(=O)O)nc2sc3c(c2c1=O)CCCC3 [Compound 5915918]
[1]
  % inhibition in initial screen: 0.0%

## COc1ccc(N2C(=O)CC(SCC(=O)O)C2=O)cc1 (stereo not shown) [Compound 5109125]
[1]
  % inhibition in initial screen: 0.0%

## COc1ccc(S(=O)(=O)N2CCCC(C(=O)O)C2)cc1 (stereo not shown) [Compound 7185124]
[1]
  % inhibition in initial screen: 0.0%

## Cc1ccc(C(=O)Nc2cccc([N+](=O)[O-])c2)cc1S(=O)(=O)Nc1cccc(C(=O)O)c1 [Compound 5913514]
[1]
  % inhibition in initial screen: 0.0%

## CC1=NN(c2ccc(C(N)=O)c(Cl)c2)C(=O)/C1=C\c1ccc(-c2cc(C)c(C)cc2[N+](=O)[O-])o1 [Compound 6b, 4-(4,5-dihydro-3-methyl-4-((5-(4,5-dimethyl-2-nitrophenyl)furan-2-yl)methylene)-5-oxopyrazol-1-yl)-2-chloro-benzamide]
other
  melting point: 267 to 269 °C

## COc1ccc(C(CC(=O)O)c2ccc(OC)c(OC)c2)cc1OC [Compound 6971425]
[1]
  % inhibition in initial screen: 0.0%

## O=C(O)CCSCC(=O)c1ccc(NS(=O)(=O)c2ccccc2)cc1 [Compound 7112743]
[1]
  % inhibition in initial screen: 0.0%

## NC(=O)c1ccccc1NC(=O)CCC(=O)O [Compound 5317891]
[1]
  % inhibition in initial screen: 0.0%

## Cc1cc(C)c(S(=O)(=O)N2CCCC(C(=O)O)C2)c(C)c1 (stereo not shown) [Compound 7188864]
[1]
  % inhibition in initial screen: 0.0%

## CC1=NN(c2ccc(S(=O)(=O)O)cc2)C(=O)C1=Cc1ccc(-c2cc(C)c(C)cc2[N+](=O)[O-])o1 [Compound 6f]
[2]
  p300 HAT inhibition, result in words (analogs compared with C646): well tolerated

## CCOC(=O)c1cc(C)c(C)cc1-c1ccc(/C=C2\C(=O)N(c3ccc(C(=O)O)cc3)N=C2C)o1 [Compound 6n, 4-(4,5-dihydro-4-((5-(4,5-dimethyl-2-ethylbenzoate)furan-2-yl)methylene)-3-methyl-5-oxopyrazol-1-yl)benzoic acid]
other
  melting point: 241 to 243 °C
